From patent US20050107386A1, “Methods of treating diseases and disorders by targeting multiple kinases” (priority 2003, published 2005) come the findings set out here.

Holding throughout (settings): 3 μM; percent of control kinase activity
The subject of one test is CaMKII(r). Nature of the test: CaMKII(r) kinase assay. The format is biochemical, rat. On the procedure:
(§1) Six compounds (presumptive single agents) were tested against a panel of 50 kinases. The results are presented in Table 2; numbers for each kinase indicate the percent of control kinase activity in the presence of a 3μM concentration of the indicated agent.
(§2) Agents that target two or more different kinases are useful in the methods of the invention as described elsewhere herein. Such compounds may be identified, and their effect on certain kinases may be identified, using the assays briefly described below in Examples 4-83. Each of these assays was carried out as described in Davies et al., Biochem. J., 351:95-105 (2000). All assays were carried out at 10 μM ATP unless otherwise noted.
In a final reaction volume of 25 μl, CaMKII (r) (5-10 mU) is incubated with 40 mM Hepes pH 7.4, 5 mM CaCl2, 30 μg/ml calmodulin, 30 μM […] (SEQ ID NO:11), 10 mM MgAcetate and [γ-^33P-ATP] (specific activity approx. 500 cpm/pmol, concentration as required). The reaction is initiated by the addition of Mg^2+ [γ-^33P-ATP]. After incubation for 40 minutes at room temperature, the reaction is stopped by the addition of 5 μl of a 3% phosphoric acid solution. 10 μl of the reaction is then spotted onto a P30 filtermat and washed three times for 5 minutes in 75 mM phosphoric acid and once in methanol prior to drying and scintillation counting.

Another test concerns the target CDK3/cyclinE(h) (Homo sapiens, UniProt Q00526). Briefly: CDK3/cyclinE(h) kinase assay. The format is biochemical. As to the method:
as §1, §2
(§3) In a final reaction volume of 25 μl, CDK3/cyclinE (h) (5-10 mU) is incubated with 8 mM MOPS pH 7.0, 0.2 mM EDTA, 0.1 mg/ml histone H1, 10 mM MgAcetate and [γ-^33P-ATP] (specific activity approx. 500 cpm/pmol, concentration as required). The reaction is initiated by the addition of Mg^2+ [γ-^33P-ATP]. After incubation for 40 minutes at room temperature, the reaction is stopped by the addition of 5 μl of a 3% phosphoric acid solution. 10 μl of the reaction is then spotted onto a P30 filtermat and washed three times for 5 minutes in 75 mM phosphoric acid and once in methanol prior to drying and scintillation counting.

Another test has as its target p70S6K(h) (Homo sapiens, UniProt P23443). Nature of the test: p70S6K(h) kinase assay. Type of test: biochemical. As to the method: as §1, §2
as §3, with “p70S6K” for “CDK3/cyclinE”, “100 μM […] (SEQ ID NO:9),” for “0.1 mg/ml histone H1,”

Another test deals with Rsk3(h) (Homo sapiens, UniProt Q15349). Briefly: Rsk3(h) kinase assay. Type of test: biochemical. As to the method:
as §1, §2
as §3, with “Rsk3” for “CDK3/cyclinE”, “30 μM […] (SEQ ID NO:11),” for “0.1 mg/ml histone H1,”

For the next test, the target named is T1, ZAP-70(h) (Homo sapiens, UniProt P43403).
T1 sequence (P43403 1-619): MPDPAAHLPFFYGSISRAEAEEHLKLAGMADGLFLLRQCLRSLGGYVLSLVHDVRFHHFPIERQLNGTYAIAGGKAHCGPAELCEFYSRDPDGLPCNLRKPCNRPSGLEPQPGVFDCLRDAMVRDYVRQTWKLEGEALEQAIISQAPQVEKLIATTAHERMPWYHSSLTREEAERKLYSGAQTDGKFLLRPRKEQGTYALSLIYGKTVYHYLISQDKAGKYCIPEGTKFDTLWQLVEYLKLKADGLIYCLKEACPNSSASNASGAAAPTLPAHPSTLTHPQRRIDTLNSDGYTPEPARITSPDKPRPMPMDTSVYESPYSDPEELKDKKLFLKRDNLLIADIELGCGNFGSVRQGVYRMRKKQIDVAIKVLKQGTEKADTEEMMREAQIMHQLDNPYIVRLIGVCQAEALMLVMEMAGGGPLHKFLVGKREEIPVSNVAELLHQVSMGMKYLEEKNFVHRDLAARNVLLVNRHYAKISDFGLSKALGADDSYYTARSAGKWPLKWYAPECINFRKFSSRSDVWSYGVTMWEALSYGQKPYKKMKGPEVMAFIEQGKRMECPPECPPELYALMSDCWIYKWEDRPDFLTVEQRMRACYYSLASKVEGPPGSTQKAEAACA
Briefly: ZAP-70(h) kinase assay. The format is biochemical. On the procedure: as §1, §2
In a final reaction volume of 25 μl, ZAP-70 (h) (5-10 mU) is incubated with 50 mM Tris pH 7.5, 0.1 mM EGTA, 0.1 mM NaVanadate, 0.1% β-mercaptoethanol, 0.1 mg/ml poly(Glu, Tyr) 4:1, 10 mM MnCl2, 10 mM MgAcetate and [γ-^33P-ATP] (Specific activity approx. 500 cpm/pmol, concentration as required). The reaction is initiated by the addition of Mg^2+ [γ-^33P-ATP]. After incubation for 40 minutes at room temperature, the reaction is stopped by the addition of 5 μl of a 3% phosphoric acid solution. 10 μl of the reaction is then spotted onto a Filtermat A and washed three times for 5 minutes in 75 mM phosphoric acid and once in methanol prior to drying and scintillation counting.

Sequence of p70S6K(h) (P23443 whole entry): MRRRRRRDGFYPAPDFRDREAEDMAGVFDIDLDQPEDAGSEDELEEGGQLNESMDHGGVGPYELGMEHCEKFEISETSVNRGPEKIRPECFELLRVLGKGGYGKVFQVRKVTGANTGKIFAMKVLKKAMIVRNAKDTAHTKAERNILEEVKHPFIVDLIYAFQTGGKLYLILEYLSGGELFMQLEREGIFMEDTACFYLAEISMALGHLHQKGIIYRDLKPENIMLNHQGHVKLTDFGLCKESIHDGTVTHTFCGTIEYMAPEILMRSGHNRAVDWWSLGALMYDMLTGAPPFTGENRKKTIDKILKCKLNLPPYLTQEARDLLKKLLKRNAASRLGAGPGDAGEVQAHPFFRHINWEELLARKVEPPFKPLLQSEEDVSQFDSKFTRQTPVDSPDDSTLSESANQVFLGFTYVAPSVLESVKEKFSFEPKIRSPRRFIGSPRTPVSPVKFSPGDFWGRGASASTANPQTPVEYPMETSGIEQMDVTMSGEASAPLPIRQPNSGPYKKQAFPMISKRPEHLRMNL
Sequence of CDK3/cyclinE(h) (Q00526 whole entry): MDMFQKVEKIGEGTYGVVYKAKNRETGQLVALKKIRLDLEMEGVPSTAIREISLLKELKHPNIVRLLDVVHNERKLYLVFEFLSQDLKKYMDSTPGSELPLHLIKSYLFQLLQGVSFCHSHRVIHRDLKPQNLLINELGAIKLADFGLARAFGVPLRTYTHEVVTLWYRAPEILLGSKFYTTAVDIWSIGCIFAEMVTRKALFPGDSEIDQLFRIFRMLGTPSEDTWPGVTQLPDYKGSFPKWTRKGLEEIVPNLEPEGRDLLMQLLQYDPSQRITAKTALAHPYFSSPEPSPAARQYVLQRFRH
Sequence of CDK3/cyclinE(h) (P24864 whole entry partner): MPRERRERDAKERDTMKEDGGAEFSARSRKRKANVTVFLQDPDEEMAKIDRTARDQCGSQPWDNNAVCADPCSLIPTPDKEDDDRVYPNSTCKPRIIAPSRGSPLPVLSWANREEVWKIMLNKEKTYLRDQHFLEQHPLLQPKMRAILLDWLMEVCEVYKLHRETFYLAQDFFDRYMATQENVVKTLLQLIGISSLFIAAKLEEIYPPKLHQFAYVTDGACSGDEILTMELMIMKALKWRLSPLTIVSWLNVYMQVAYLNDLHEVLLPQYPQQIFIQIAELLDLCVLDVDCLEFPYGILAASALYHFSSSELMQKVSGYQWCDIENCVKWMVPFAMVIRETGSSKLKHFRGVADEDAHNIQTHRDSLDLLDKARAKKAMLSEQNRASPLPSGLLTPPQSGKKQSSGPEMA
Sequence of Rsk3(h) (Q15349 whole entry): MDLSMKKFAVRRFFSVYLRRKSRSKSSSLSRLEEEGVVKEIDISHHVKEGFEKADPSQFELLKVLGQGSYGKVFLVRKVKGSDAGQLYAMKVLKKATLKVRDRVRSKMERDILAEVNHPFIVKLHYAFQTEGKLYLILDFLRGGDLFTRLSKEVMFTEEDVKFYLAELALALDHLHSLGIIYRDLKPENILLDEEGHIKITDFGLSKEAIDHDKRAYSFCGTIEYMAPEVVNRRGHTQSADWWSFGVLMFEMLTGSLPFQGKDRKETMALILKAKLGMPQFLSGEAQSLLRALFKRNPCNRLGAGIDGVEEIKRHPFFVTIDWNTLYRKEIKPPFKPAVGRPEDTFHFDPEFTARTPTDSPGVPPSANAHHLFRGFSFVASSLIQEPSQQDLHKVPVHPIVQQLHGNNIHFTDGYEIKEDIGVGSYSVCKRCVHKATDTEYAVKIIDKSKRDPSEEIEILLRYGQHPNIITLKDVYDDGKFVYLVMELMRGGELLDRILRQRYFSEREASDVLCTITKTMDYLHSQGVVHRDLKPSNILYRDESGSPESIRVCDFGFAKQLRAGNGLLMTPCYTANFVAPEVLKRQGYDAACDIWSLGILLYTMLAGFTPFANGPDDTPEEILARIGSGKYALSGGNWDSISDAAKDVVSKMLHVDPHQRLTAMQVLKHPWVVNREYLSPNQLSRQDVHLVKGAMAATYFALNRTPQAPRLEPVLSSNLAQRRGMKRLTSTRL

As to `CC(C)Cc1nc(-c2ccc3[nH]nc(-c4ccc5cc(OCCN6CCCC6)ccc5c4)c3c2)n[nH]1` [CC002, 5-(5-Isobutyl-1H-[1,2,4]Triazol-3-yl)-3-[6-(2-Pyrrolidin-1-yl-Ethoxy)-Naphthalen-2-yl]-1H-Indazole], in the test with CaMKII(r), the “Inhibitory activity (% of control), CaMKII(r)” value is listed as 26 % of control. Moreover, the “Inhibitory activity (% of control), CDK3/cyclinE(h)” value on CDK3/cyclinE(h) was 36 % of control. Besides, on p70S6K(h), the “Inhibitory activity (% of control), p70S6K(h)” value was 16 % of control. The “Inhibitory activity (% of control), Rsk3(h)” value on Rsk3(h) is 5 % of control. Besides, the “Inhibitory activity (% of control), ZAP-70(h)” value at ZAP-70(h) is on record as 40 % of control.

On to `O=C(NC1CCCC1)c1cccc(-c2n[nH]c3ccc(-c4nc[nH]n4)cc23)c1` [CC007, 3-(5-(1H-1,2,4-triazol-3-yl)(1H-indazol-3-yl))phenyl-N-cyclopentylcarboxamide, reference compound], for which the “Inhibitory activity (% of control), CaMKII(r)” value in the test on CaMKII(r) is 68 % of control. For the same compound, the “Inhibitory activity (% of control), CDK3/cyclinE(h)” value at CDK3/cyclinE(h) is on record as 73 % of control. Also, at p70S6K(h), the “Inhibitory activity (% of control), p70S6K(h)” value is 83 % of control. In addition, the “Inhibitory activity (% of control), Rsk3(h)” value on Rsk3(h) was 38 % of control. In addition, the “Inhibitory activity (% of control), ZAP-70(h)” value on ZAP-70(h) is reported as 87 % of control.

With `Fc1ccc(-c2n[nH]c3ccc(-c4n[nH]c(C5CCCC5)n4)cc23)cc1` [CC006, 5-(5-Cyclopentyl-1H-[1,2,4]triazol-3-yl)-3-(4-fluoro-phenyl)-1H-indazole, reference compound], in the test with CaMKII(r), the “Inhibitory activity (% of control), CaMKII(r)” value was 82 % of control. For the same compound, on CDK3/cyclinE(h), the “Inhibitory activity (% of control), CDK3/cyclinE(h)” value is given as 15 % of control. The “Inhibitory activity (% of control), p70S6K(h)” value on p70S6K(h) is 41 % of control. Besides, at Rsk3(h), the “Inhibitory activity (% of control), Rsk3(h)” value is reported as 39 % of control. The “Inhibitory activity (% of control), ZAP-70(h)” value on ZAP-70(h) is reported as 77 % of control.

For the compound `COc1ccc2cc(-c3n[nH]c4ccc(-c5n[nH]c(CN6CCOCC6)n5)cc34)ccc2c1` [CC001, 3-(6-Methoxynaphthalen-2-yl)-5-(5-Morpholin-4-Ylmethyl-1H-[1,2,4]Triazol-3-yl)-1H-Indazole], the “Inhibitory activity (% of control), CaMKII(r)” value with CaMKII(r) was 64 % of control. The “Inhibitory activity (% of control), CDK3/cyclinE(h)” value at CDK3/cyclinE(h) is recorded as 31 % of control. Also, the “Inhibitory activity (% of control), p70S6K(h)” value at p70S6K(h) is recorded as 17 % of control. At Rsk3(h), the “Inhibitory activity (% of control), Rsk3(h)” value is 4 % of control. The “Inhibitory activity (% of control), ZAP-70(h)” value on ZAP-70(h) was 105 % of control.

Consider `CC(C)(C)Cc1nc(-c2ccc3[nH]nc(-c4ccc5cc(OCc6ccccn6)ccc5c4)c3c2)n[nH]1` [CC004, 5-[5-(2,2-Dimethyl-propyl)-1H-[1,2,4]triazol-3-yl]-3-[6-(pyridine-2-ylmethoxy)-naphthalen-2-yl]-1H-indazole], for which the “Inhibitory activity (% of control), CaMKII(r)” value with CaMKII(r) is on record as 52 % of control. Moreover, on CDK3/cyclinE(h), the “Inhibitory activity (% of control), CDK3/cyclinE(h)” value was 39 % of control. On p70S6K(h), the “Inhibitory activity (% of control), p70S6K(h)” value is given as 40 % of control. In addition, the “Inhibitory activity (% of control), Rsk3(h)” value on Rsk3(h) was 43 % of control. In addition, the “Inhibitory activity (% of control), ZAP-70(h)” value on ZAP-70(h) is on record as 68 % of control.

As for `CCN1CCC[C@H]1COc1ccc2cc(-c3n[nH]c4ccc(-c5nc(CC(C)(C)C)n[nH]5)cc34)ccc2c1` [CC005, 2-[((2s)-1-ethylpyrrolidin-2-yl)methoxy]-6-{5-[3-(2,2-Dimethylpropyl)(1H-1,2,4,-triazol-5-yl)](1H-indazol-3-yl)}naphthalene], the “Inhibitory activity (% of control), CaMKII(r)” value in the test on CaMKII(r) is 4 % of control. Moreover, at CDK3/cyclinE(h), the “Inhibitory activity (% of control), CDK3/cyclinE(h)” value is reported as 25 % of control. The “Inhibitory activity (% of control), p70S6K(h)” value on p70S6K(h) was 3 % of control. For the same compound, the “Inhibitory activity (% of control), Rsk3(h)” value on Rsk3(h) is recorded as 4 % of control. For the same compound, at ZAP-70(h), the “Inhibitory activity (% of control), ZAP-70(h)” value is given as 26 % of control.
